Data from patent publication EP4678638A1, “NEW E3 UBIQUITIN LIGASE LIGAND, PROTEIN DEGRADATION AGENT AND USE THEREOF” (priority 2023, dated 2024).
Where two headings read alike, the source gives them in different places.

Legend:
[1] = target: T1, human Cereblon WT GST-tagged protein (Homo sapiens, UniProt Q96SW2); experiment: CRBN binding, HTRF (CEREBLON BINDING kit); conditions: Table II-2, CRBN binding screening, HTRF; for inhibition at 0.5 µM: read-out: Inhibition rate (%) at 0.5µM; for inhibition at 2 µM: read-out: Inhibition rate (%) at 2 µM
T1 construct: purchased CISBIO 64BDCRBNPEH
T1 sequence (Q96SW2 whole entry): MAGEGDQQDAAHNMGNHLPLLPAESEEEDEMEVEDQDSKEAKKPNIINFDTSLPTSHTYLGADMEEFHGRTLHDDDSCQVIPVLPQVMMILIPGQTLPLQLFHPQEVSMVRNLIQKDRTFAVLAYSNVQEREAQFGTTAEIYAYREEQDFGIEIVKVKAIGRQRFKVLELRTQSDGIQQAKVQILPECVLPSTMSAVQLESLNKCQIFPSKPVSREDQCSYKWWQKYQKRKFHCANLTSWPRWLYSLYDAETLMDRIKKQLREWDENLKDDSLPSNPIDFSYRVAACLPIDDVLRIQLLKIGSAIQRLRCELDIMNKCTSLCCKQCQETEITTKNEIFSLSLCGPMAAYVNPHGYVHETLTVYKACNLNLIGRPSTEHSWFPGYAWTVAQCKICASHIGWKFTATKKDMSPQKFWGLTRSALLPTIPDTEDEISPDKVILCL
Summary of the method: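 After 3 h at room temperature, emission at 665 and 620 nm was measured in a homogeneous time-resolved fluorescence format. Compounds competed with a Thalidomide-Re probe for GST-tagged wild-type human CRBN, which was labelled with a Eu anti-GST antibody.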

RSK1 = target: T2, RSK1 (Homo sapiens, UniProt Q15418); experiment: Western blot degradation of RSK1 (hPBMC); assay type: cell-based; conditions: Table D8
T2 construct: evaluate the effects of the compounds of the present disclosure on the expression of target proteins in cells; endogenous in cells; host or cells: hPBMC
T2 sequence (Q15418 whole entry): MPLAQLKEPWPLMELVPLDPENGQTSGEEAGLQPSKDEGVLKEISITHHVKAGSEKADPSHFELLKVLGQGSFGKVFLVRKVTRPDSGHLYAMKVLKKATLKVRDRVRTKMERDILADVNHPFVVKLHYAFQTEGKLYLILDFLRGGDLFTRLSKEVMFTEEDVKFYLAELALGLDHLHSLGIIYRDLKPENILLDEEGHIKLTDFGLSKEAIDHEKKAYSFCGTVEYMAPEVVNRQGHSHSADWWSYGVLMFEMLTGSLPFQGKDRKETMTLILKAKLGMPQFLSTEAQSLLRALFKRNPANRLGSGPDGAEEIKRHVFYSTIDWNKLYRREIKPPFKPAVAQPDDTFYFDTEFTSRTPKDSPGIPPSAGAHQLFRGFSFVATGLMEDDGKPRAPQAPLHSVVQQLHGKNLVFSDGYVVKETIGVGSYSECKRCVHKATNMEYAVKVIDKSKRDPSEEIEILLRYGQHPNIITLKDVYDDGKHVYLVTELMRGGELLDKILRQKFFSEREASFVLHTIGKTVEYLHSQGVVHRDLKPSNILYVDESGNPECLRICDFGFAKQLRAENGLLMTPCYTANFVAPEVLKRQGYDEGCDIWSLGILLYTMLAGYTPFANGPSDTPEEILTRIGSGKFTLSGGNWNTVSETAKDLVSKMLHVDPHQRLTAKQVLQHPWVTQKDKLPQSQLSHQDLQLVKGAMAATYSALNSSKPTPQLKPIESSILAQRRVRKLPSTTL
Summary of the method: (§1)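 After compound exposure, cells were harvested and lysates run on SDS-PAGE, transferred to nitrocellulose and probed with antibodies. Remaining target (%) was computed from band grayscale relative to an internal control protein and normalised; degradation (%) was 100% minus that.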

RSK2 = target: T3, RSK2 (Homo sapiens, UniProt P51812); experiment: Western blot degradation of RSK2 (hPBMC); assay type: cell-based; conditions: Table D8
T3 construct: evaluate the effects of the compounds of the present disclosure on the expression of target proteins in cells; endogenous in cells; host or cells: hPBMC
T3 sequence (P51812 whole entry): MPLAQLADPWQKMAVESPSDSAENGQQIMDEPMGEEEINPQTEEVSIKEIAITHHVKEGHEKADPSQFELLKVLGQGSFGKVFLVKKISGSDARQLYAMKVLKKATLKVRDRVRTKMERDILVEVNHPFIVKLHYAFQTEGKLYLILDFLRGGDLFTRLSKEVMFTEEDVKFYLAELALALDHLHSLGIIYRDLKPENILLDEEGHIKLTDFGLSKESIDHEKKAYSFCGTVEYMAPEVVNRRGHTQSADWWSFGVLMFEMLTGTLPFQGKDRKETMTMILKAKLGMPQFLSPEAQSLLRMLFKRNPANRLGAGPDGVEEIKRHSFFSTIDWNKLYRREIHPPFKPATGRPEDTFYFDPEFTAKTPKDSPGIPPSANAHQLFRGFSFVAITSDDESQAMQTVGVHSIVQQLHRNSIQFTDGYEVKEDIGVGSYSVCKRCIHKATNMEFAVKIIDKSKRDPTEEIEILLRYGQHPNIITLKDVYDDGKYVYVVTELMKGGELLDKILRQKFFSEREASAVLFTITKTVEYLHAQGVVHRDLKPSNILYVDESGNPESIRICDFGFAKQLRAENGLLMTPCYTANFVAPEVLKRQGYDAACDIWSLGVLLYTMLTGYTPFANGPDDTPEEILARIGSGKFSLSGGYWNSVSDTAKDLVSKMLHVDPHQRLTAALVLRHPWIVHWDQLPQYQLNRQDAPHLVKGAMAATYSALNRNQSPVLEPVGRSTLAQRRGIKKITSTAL
Summary of the method: as §1

SR = experiment: CCK-8 proliferation, SR; assay type: cell-based, Human; conditions: Table B10, compounds designed based on the IRAK4 inhibitors, SR cells, read-out: Inhibitory activity (IC50, nM) on tumor cell proliferation, SR
Summary of the method: (§2)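 Tumor cells were cultured at 37°C with 5% CO2, seeded, and after 24h treated with compounds at 10 concentrations starting at 10µM (5-fold serial dilutions).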

MM.1S = experiment: CCK-8 proliferation, MM.1S; assay type: cell-based; conditions: Table B10, compounds designed based on the IRAK4 inhibitors, MM.1S cells, read-out: Inhibitory activity (IC50, nM) on tumor cell proliferation, MM.1S
Summary of the method: as §2

Jurkat = experiment: CCK-8 proliferation, Jurkat; assay type: cell-based, Human; conditions: Table B10, compounds designed based on the IRAK4 inhibitors, Jurkat cells, read-out: Inhibitory activity (IC50, nM) on tumor cell proliferation, Jurkat
Procedure: The tumor cells used herein were cultured in a cell culture medium listed in table A1 at 37°C in an incubator with 5% CO2. Prior to experimentation, all cell lines used were correctly identified by STR profiling, and tested negative for mycoplasma contamination using a mycoplasma detection kit through routine screenings. Table A1. Tumor cells and cell culture medium used in the present disclosure
IC50 values of the compounds of the present disclosure (including the compounds in Table 1, and compounds of examples) were measured using the Meilun Cell Counting Kit-8 kit from Dalian Meilun Biotech Co., Ltd. Assay details are as follows: tumor cells were seeded in a 96-well plate at a density listed in Table A2. After 24h, 100 µL of the inoculated cells were treated with 0.5µL of the compounds of the present disclosure (including the compounds in Tables 1 and 2, and compounds of examples) at 10 different successively decreasing concentrations (starting at the highest concentration of 10µM; 5-fold serial dilutions). After the cells were treated with the compounds of the present disclosure for a period of time, the cell viability detection reagent was added to the culture medium for cell viability assessment according to the instructions provided with the CCK-8 kit. […] The growth inhibition of the compounds of the present disclosure on cells was plotted by Prism Graphpad software, and the IC50 values of the compounds of the present disclosure were calculated therefrom. […] Seeding protocol and treatment time for tumor cells

SMILES | inhibition at 0.5 µM [1] | inhibition at 2 µM [1] | Degradation of substrate protein RSK1 (substrate protein remaining %) (RSK1) | Degradation of substrate protein RSK2 (substrate protein remaining %) (RSK2) | IC50 (SR; Homo sapiens) | IC50 (MM.1S; Homo sapiens, MM1.S) | IC50 (Jurkat; Homo sapiens) | IC50 (SR) | IC50 (MM.1S) | IC50 (Jurkat)
C[C@@H]1CNC(=O)c2cc3ccc(C(=O)Nc4cnn(Cc5ccc(N6CCN(Cc7ccc(C8CCC(=O)NC8=O)cc7)CC6)cc5)c4)nc3n21 (stereo partly drawn) [GT-07926, (9R)-N-(1-(4-(4-(4-(2,6-dioxopiperidin-3-yl)benzyl)piperazin-1-yl)benzyl)-1H-pyrazol-4-yl)-9-methyl-6-oxo-6,7,8,9-tetrahydropyrido[3',2':4,5]pyrrolo[1,2-a]pyrazine-2-carboxamide] | 60 to 80% | 80 to 100% | A (A is defined as 0% ≤ substrate protein remaining % ≤ 80%) | B (B is defined as substrate protein remaining % > 80%) |  |  |  |  |  | 
C[C@@H]1CNC(=O)c2cc3ccc(C(=O)Nc4cnn(Cc5ccc(N6CCC(N(C)Cc7cc(C8CCC(=O)NC8=O)cnc7F)CC6)cc5)c4)nc3n21 (stereo partly drawn) [GT-07946, (9R)-N-(1-(4-(4-(((5-(2,6-dioxopiperidin-3-yl)-2-fluoropyridin-3-yl)methyl)(methyl)amino)piperidin-1-yl)benzyl)-1H-pyrazol-4-yl)-9-methyl-6-oxo-6,7,8,9-tetrahydropyrido[3',2':4,5]py rrolo[1,2-a]pyrazine-2-carboxamide] | 30 to 40% | 60 to 80% | A (A is defined as 0% ≤ substrate protein remaining % ≤ 80%) | A (A is defined as 0% ≤ substrate protein remaining % ≤ 80%) |  |  |  |  |  | 
C[C@@H]1CNC(=O)c2cc3ccc(C(=O)Nc4cnn(Cc5ccc(N6CCC(N7CCN(Cc8cc(N9CCC(=O)NC9=O)cnc8F)CC7)CC6)cc5)c4)nc3n21 [GT-07962, (R)-N-(1-(4-(4-(4-((5-(2,4-dioxotetrahydropyrimidin-1(2H)-yl)-2-fluoropyridin-3-yl)methyl)piperazin-1-yl)piperidin-1-yl)benzyl)-1H-pyrazol-4-yl)-9-methyl-6-oxo-6,7,8,9-tetrahydropyrido[3',2':4,5]pyrrolo[1,2-a]pyrazine-2-carboxamide] | 20 to 30% | 53 to 60% | A (A is defined as 0% ≤ substrate protein remaining % ≤ 80%) | A (A is defined as 0% ≤ substrate protein remaining % ≤ 80%) |  |  |  |  |  | 
C[C@@H]1CNC(=O)c2cc3ccc(C(=O)Nc4cnn(Cc5ccc(N6CCC(N7CCN(Cc8ccc(N9CCC(=O)NC9=O)cn8)CC7)CC6)cc5)c4)nc3n21 [GT-07954, (R)-N-(1-(4-(4-(4-((5-(2,4-dioxotetrahydropyrimidin-1(2H)-yl)pyridin-2-yl)methyl)piperazin-1-yl)piperidin-1-yl)benzyl)-1H-pyrazol-4-yl)-9-methyl-6-oxo-6,7,8,9-tetrahydropyrido[3',2':4,5]pyrrolo[1,2-a]pyrazine-2-carboxamide] | 60 to 80% | 80 to 100% | A (A is defined as 0% ≤ substrate protein remaining % ≤ 80%) | A (A is defined as 0% ≤ substrate protein remaining % ≤ 80%) |  |  |  |  |  | 
O=C1CCC(c2ccc(CN3CCC(N4CCN(c5ccc6c(c5)nc(NC(=O)c5cccc(C(F)(F)F)c5)n6[C@H]5CC[C@@H](CO)CC5)CC4)CC3)cc2)C(=O)N1 (some centres unmarked) [GT-05020, N-(5-(4-(1-(4-(2,6-dioxopiperidin-3-yl)benzyl)piperidin-4-yl)piperazin-1-yl)-1-((1s,4s)-4-(hydroxymethyl)cyclohexyl) -1H-benzo[d]imidazol-2-yl)-3-(trifluoromethyl)benzamide] |  |  |  |  | 500 to 1000 nM | 500 to 1000 nM | 500 to 1000 nM |  |  | 
C[C@@H]1CNC(=O)c2cc3ccc(C(=O)Nc4cnn(Cc5ccc(N6CCC(N7CCN(Cc8cncc(C9CCC(=O)NC9=O)c8)CC7)CC6)cc5)c4)nc3n21 (stereo partly drawn) [GT-07961, (9R)-N-(1-(4-(4-(4-((5-(2,6-dioxopiperidin-3-yl)pyridin-3-yl)methyl)piperazin-1-yl)piperidin-1-yl)benzyl)-1H-pyrazol-4-yl)-9-methyl-6-oxo-6,7,8,9-tetrahydropyrido[3',2':4,5]pyrrolo[1,2-a]pyrazine-2-carboxamide] | 20 to 30% | 60 to 80% | A (A is defined as 0% ≤ substrate protein remaining % ≤ 80%) | A (A is defined as 0% ≤ substrate protein remaining % ≤ 80%) |  |  |  |  |  | 
O=C1CCN(c2ccc(CN3CCC(N4CCN(c5ccc6c(c5)nc(NC(=O)c5cccc(C(F)(F)F)c5)n6[C@H]5CC[C@@H](CO)CC5)CC4)CC3)cn2)C(=O)N1 [GT-05025, N-(5-(4-(1-((6-(2,4-dioxotetrahydropyrimidin-1(2H)-yl)pyridin-3-yl)methyl)piperidin-4-yl)piperazin-1-yl)-1-((1s,4s)-4-(hydroxymethyl)cyclohexyl) -1H-benzo[d]imidazol-2-yl)-3-(trifluoromethyl)benzamide] |  |  |  |  |  |  |  | 500 to 1000 nM | 500 to 1000 nM | 500 to 1000 nM
C[C@@H]1CNC(=O)c2cc3ccc(C(=O)Nc4cnn(Cc5ccc(NCc6ccnc(N7CCC(=O)NC7=O)c6)cc5)c4)nc3n21 [GT-07795, (R)-N-(1-(4-(((2-(2,4-dioxotetrahydropyrimidin-1(2H)-yl)pyridin-4-yl)methyl)amino)benzyl)-1H-pyrazol-4-yl)-9-methyl-6-oxo-6,7,8,9-tetrahydropyrido[3',2':4,5]pyrrolo[1,2-a]pyrazine-2-carboxamide] | 30 to 40% | 40 to 53% | A (A is defined as 0% ≤ substrate protein remaining % ≤ 80%) | B (B is defined as substrate protein remaining % > 80%) |  |  |  |  |  | 
C[C@@H]1CNC(=O)c2cc3ccc(C(=O)Nc4cnn(Cc5ccc(NCc6cncc(N7CCC(=O)NC7=O)c6)cc5)c4)nc3n21 [GT-07796, (R)-N-(1-(4-(((5-(2,4-dioxotetrahydropyrimidin-1(2H)-yl)pyridin-3-yl)methyl)amino)benzyl)-1H-pyrazol-4-yl)-9-methyl-6-oxo-6,7,8,9-tetrahydropyrido[3',2':4,5]pyrrolo[1,2-a]pyrazine-2-carboxamide] | 80 to 100% | 80 to 100% | A (A is defined as 0% ≤ substrate protein remaining % ≤ 80%) | B (B is defined as substrate protein remaining % > 80%) |  |  |  |  |  | 
C[C@@H]1CNC(=O)c2cc3ccc(C(=O)Nc4cnn(Cc5ccc(N6CCC(N7CCN(Cc8cc(C9CCC(=O)NC9=O)cnc8F)CC7)CC6)cc5)c4)nc3n21 (stereo partly drawn) [GT-07960, (9R)-N-(1-(4-(4-(4-((5-(2,6-dioxopiperidin-3-yl)-2-fluoropyridin-3-yl)methyl)piperazin-1-yl)piperidin-1-yl)benzyl)-1H-pyrazol-4-yl)-9-methyl-6-oxo-6,7,8,9-tetrahydropyrido[3',2':4,5]pyrrolo[1,2-a]pyrazine-2-carboxamide] | 30 to 40% | 53 to 60% | A (A is defined as 0% ≤ substrate protein remaining % ≤ 80%) | B (B is defined as substrate protein remaining % > 80%) |  |  |  |  |  | 
